Patent US20240083857A1, “2-Methyl-Quinazolines” (Bayer Pharma Aktiengesellschaft, priority 2017, published 2024)

Assays:
[1] = target: human SOS1 (nucleotide exchange of K-Ras^G12C) (Homo sapiens, UniProt Q07889); test: Biochemical assay 2: K-Ras^G12C activation assay by hSOS1 at high GTP concentration (HTRF); conditions: high GTP; read-out: Assay 2 (KRAS-Activation by SOS high GTP) activity expressed as IC50
[2] = target: Epidermal Growth Factor Receptor (EGFR) (Homo sapiens (Human), UniProt P00533); test: EGFR kinase assay (TR-FRET); type: biochemical; conditions: values given in μM; read-out: EGFR kinase inhibition IC50
In short: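 Read-out is the 665/620 nm HTRF ratio, from a Tb-cryptate anti-phosphotyrosine antibody and streptavidin-XL665 bound to phosphorylated biotin-peptide substrate. The enzyme, A431-derived EGFR (~3 U/ml), was given 15 min compound pre-binding at 22° C in Hepes pH 7.0 with Mg2+/Mn2+ before reaction.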

Sequence of Epidermal Growth Factor Receptor (EGFR) (P00533 25-1210): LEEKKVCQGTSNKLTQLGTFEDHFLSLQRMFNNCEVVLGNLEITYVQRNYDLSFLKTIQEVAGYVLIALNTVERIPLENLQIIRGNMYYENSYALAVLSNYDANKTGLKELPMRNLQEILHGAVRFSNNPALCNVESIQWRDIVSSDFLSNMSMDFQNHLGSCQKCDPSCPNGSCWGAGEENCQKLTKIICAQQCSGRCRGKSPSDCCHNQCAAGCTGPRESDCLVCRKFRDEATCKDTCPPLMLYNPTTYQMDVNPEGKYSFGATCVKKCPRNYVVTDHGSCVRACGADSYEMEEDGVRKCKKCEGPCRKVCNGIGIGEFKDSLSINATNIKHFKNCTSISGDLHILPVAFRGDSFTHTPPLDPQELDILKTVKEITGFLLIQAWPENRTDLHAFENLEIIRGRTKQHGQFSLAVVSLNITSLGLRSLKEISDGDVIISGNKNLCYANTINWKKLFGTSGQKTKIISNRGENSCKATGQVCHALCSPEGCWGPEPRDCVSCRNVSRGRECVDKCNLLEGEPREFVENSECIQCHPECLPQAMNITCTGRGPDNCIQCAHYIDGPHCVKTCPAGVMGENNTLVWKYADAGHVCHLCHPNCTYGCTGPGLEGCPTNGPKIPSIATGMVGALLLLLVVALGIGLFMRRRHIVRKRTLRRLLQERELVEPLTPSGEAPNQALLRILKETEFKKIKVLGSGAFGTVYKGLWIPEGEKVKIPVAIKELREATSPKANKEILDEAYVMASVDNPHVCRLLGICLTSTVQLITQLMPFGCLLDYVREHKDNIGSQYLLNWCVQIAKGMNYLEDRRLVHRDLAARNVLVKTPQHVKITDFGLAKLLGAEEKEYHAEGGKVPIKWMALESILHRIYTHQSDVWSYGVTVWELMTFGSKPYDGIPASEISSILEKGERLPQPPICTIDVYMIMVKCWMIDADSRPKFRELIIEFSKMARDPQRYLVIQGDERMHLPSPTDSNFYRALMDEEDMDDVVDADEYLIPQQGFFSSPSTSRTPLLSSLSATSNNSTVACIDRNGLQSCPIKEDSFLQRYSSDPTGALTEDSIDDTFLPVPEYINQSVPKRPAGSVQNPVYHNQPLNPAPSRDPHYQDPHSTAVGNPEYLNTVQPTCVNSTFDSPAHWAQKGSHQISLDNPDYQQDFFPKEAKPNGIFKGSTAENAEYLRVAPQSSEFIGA

Compound | IC50 [1] | IC50 [2]
COc1cc2nc(C)nc(NC(C)c3ccc(-c4ccccc4CN(C)C)s3)c2cc1OC (stereo not shown) [Example 262, N-[1-(5-{2-[(dimethylamino)methyl]phenyl}thiophen-2-yl)ethyl]-6,7-dimethoxy-2-methylquinazolin-4-amine] | 0.044 µM | > 20 µM
COc1cc2nc(C)nc(NC(C)c3ccc(-c4ccc(F)cc4CNC(=O)CNCC(F)(F)F)s3)c2cc1OC (stereo not shown) [Example 295, N-[2-(5-{1-[(6,7-dimethoxy-2-methylquinazolin-4-yl)amino]ethyl}thiophen-2-yl)-5-fluorobenzyl]-N^2-(2,2,2-trifluoroethyl)glycinamide] | 1.47 µM | > 20 µM
COc1cc2nc(C)nc(NC(C)c3ccc(-c4ccc(F)cc4CNC(=O)c4cnc[nH]4)s3)c2cc1OC (stereo not shown) [Example 294, N-[2-(5-{1-[(6,7-dimethoxy-2-methylquinazolin-4-yl)amino]ethyl}thiophen-2-yl)-5-fluorobenzyl]-1H-imidazole-5-carboxamide] | 3.93 µM | > 20 µM
COc1cc2nc(C)nc(NC(C)c3ccc(-c4ccc(F)cc4CNC(=O)c4ncc[nH]4)s3)c2cc1OC (stereo not shown) [Example 293, N-[2-(5-{1-[(6,7-dimethoxy-2-methylquinazolin-4-yl)amino]ethyl}thiophen-2-yl)-5-fluorobenzyl]-1H-imidazole-2-carboxamide] | 3.92 µM | > 20 µM
COc1cc2nc(C)nc(NC(C)c3cccc4ccsc34)c2cc1OC (stereo not shown) [Example 15, N-[1-(1-benzothiophen-7-yl)ethyl]-6,7-dimethoxy-2-methylquinazolin-4-amine] | 0.0911 µM | > 20 µM
COc1cc2nc(C)nc(N[C@H](C)c3cccc(-c4ccn[nH]4)c3)c2cc1OC [Example 337, 6,7-dimethoxy-2-methyl-N-{(1R)-1-[3-(1H-pyrazol-5-yl)phenyl]ethyl}quinazolin-4-amine] | 0.806 µM | > 20 µM
COC(=O)CNCc1ccccc1-c1ccc(C(C)Nc2nc(C)nc3cc(OC)c(OC)cc23)s1 (stereo not shown) [Example 281, methyl N-[2-(5-{1-[(6,7-dimethoxy-2-methylquinazolin-4-yl)amino]ethyl}thiophen-2-yl)benzyl]glycinate] | 0.447 µM | > 20 µM
COc1cc2nc(C)nc(N[C@H](C)c3cccc(-c4ccccc4CN)c3)c2cc1OC [Example 258, N-{(1R)-1-[2′-(aminomethyl)biphenyl-3-yl]ethyl}-6,7-dimethoxy-2-methylquinazolin-4-amine] | 0.19 µM | > 20 µM
COc1cc2nc(C)nc(NC(C)c3ccc(-c4ccccc4CNc4cc[nH]n4)s3)c2cc1OC (stereo not shown) [Example 302, 6,7-dimethoxy-2-methyl-N-[1-(5-{2-[(1H-pyrazol-3-ylamino)methyl]phenyl}thiophen-2-yl)ethyl]quinazolin-4-amine] | 1.26 µM | > 20 µM
COc1cc2nc(C)nc(NC(C)c3ccc(-c4ccc(F)cc4CNC(C)=O)s3)c2cc1OC (stereo not shown) [Example 307, N-[2-(5-{1-[(6,7-dimethoxy-2-methylquinazolin-4-yl)amino]ethyl}thiophen-2-yl)-5-fluorobenzyl]acetamide] | 0.593 µM | > 20 µM
COc1cc2nc(C)nc(NC(C)c3ccc(-c4cnc5n4CCC5)s3)c2cc1OC (single isomer, unassigned; enantiomer 1) [Example 328, N-{1-[5-(6,7-dihydro-5H-pyrrolo[1,2-a]imidazol-3-yl)thiophen-2-yl]ethyl}-6,7-dimethoxy-2-methylquinazolin-4-amine, Enantiomer 1] | 0.526 µM | > 20 µM
COc1cc2nc(C)nc(NC(C)c3cccc4scnc34)c2cc1OC (stereo not shown) [Example 14, N-[1-(1,3-benzothiazol-4-yl)ethyl]-6,7-dimethoxy-2-methylquinazolin-4-amine] | 0.608 µM | > 20 µM
COc1cc2nc(C)nc(NC(C)c3cc(C)cc4[nH]ncc34)c2cc1OC (stereo not shown) [Example 16, 6,7-dimethoxy-2-methyl-N-[1-(6-methyl-1H-indazol-4-yl)ethyl]quinazolin-4-amine] | 3.02 µM | > 20 µM
COc1cc2nc(C)nc(NC(C)c3ccc(-c4ccc(Cl)cc4CN(C)C)s3)c2cc1OC (stereo not shown) [Example 323, N-[1-(5-{4-chloro-2-[(dimethylamino)methyl]phenyl}thiophen-2-yl)ethyl]-6,7-dimethoxy-2-methylquinazolin-4-amine] | 0.0729 µM | > 20 µM
COc1cc2nc(C)nc(NC(C)c3ccc(-c4ccccc4CNc4ccccn4)s3)c2cc1OC (stereo not shown) [Example 301, 6,7-di methoxy-2-methyl-N-[1-(5-{2-[(pyridin-2-ylamino)methyl]phenyl}thiophen-2-yl)ethyl]quinazolin-4-amine] | 0.931 µM | > 20 µM
COc1cc2nc(C)nc(NC(C)c3cc(Br)cs3)c2cc1OC (stereo not shown) [Example 264, N-[1-(4-bromothiophen-2-yl)ethyl]-6,7-dimethoxy-2-methylquinazolin-4-amine] | 1.67 µM | > 20 µM
COc1cc2nc(C)nc(NC(C)c3ccc(-c4ccccc4CNCC(=O)N4CCc5ccccc5C4)s3)c2cc1OC (stereo not shown) [Example 303, 1-(3,4-dihydroisoquinolin-2(1H)-yl)-2-{[2-(5-{1-[(6,7-dimethoxy-2-methylquinazolin-4-yl)amino]ethyl}thiophen-2-yl)benzyl]amino}ethanone] | 0.84 µM | > 20 µM
COc1cc2nc(C)nc(NC(C)c3cncc4sccc34)c2cc1OC (stereo not shown) [Example 332, 6,7-dimethoxy-2-methyl-N-[1-(thieno[2,3-c]pyridin-4-yl)ethyl]quinazolin-4-amine] | 2.62 µM | > 20 µM
COc1cc2nc(C)nc(NC(C)c3ccc4c(c3)OCCO4)c2cc1OC (stereo not shown) [Example 19, N-[1-(2,3-dihydro-1,4-benzodioxin-6-yl)ethyl]-6,7-dimethoxy-2-methylquinazolin-4-amine] | 6.55 µM | > 20 µM
COc1cc2nc(C)nc(NC(C)c3ccc(-c4cccc(CN)c4)s3)c2cc1OC (stereo not shown) [Example 265, N-[1-{5-[3-(aminomethyl)phenyl]thiophen-2-yl}ethyl]-6,7-dimethoxy-2-methylquinazolin-4-amine] | 1.47 µM | > 20 µM
COc1cc2nc(C)nc(NC(C)c3ccc(-c4cccc5sc(C(N)=O)c(N)c45)s3)c2cc1OC (stereo not shown) [Example 278, 3-amino-4-(5-{1-[(6,7-dimethoxy-2-methylquinazolin-4-yl)amino]ethyl}thiophen-2-yl)-1-benzothiophene-2-carboxamide] | 3.71 µM | > 20 µM
COc1cc2nc(C)nc(NC(C)c3ccc(-c4ccc(CN)s4)s3)c2cc1OC (stereo not shown) [Example 276, N-{1-[5′-(aminomethyl)-2,2′-bithiophen-5-yl]ethyl}-6,7-dimethoxy-2-methylquinazolin-4-amine] | 1.66 µM | > 20 µM
CNCc1ccccc1-c1cccc([C@@H](C)Nc2nc(C)nc3cc(OC)c(OC)cc23)c1 [Example 268, 6,7-dimethoxy-2-methyl-N-[(1R)-1-{2′-[(methylamino)methyl]biphenyl-3-yl}ethyl]quinazolin-4-amine] | 0.151 µM | > 20 µM
COc1cc2nc(C)nc(N[C@H](C)c3cccc(-n4ccnc4)c3)c2cc1OC [Example 340, N-{(1R)-1-[3-(1H-imidazol-1-yl)phenyl]ethyl}-6,7-dimethoxy-2-methylquinazolin-4-amine] | 0.909 µM | > 20 µM
COc1cc2nc(C)nc(NC(C)c3ccc(-c4cc(C)n(C)c4C#N)s3)c2cc1OC (stereo not shown) [Example 286, 3-(5-{1-[(6,7-dimethoxy-2-methylquinazolin-4-yl)amino]ethyl}thiophen-2-yl)-1,5-dimethyl-1H-pyrrole-2-carbonitrile] | 17.4 µM | > 20 µM
COc1cc2nc(C)nc(NC(C)c3ccc(-c4ccc(F)cc4CNCc4nccn4C)s3)c2cc1OC (stereo not shown) [Example 304, N-[1-{5-[4-fluoro-2-({[(1-methyl-1H-imidazol-2-yl)methyl]amino}methyl)phenyl]thiophen-2-yl}ethyl]-6,7-dimethoxy-2-methylquinazolin-4-amine] | 0.469 µM | > 20 µM
